Assay results taken from patent US6956036B1, “6-hydroxy-indazole derivatives for treating glaucoma” (Alcon, Inc., priority 2000, dated 2005).

How the values were obtained:
5-HT2 receptor = biological target: T1, 5-HT2 receptor (Rattus norvegicus, UniProt P14842); assay: 5-HT2 Functional Assay: Phosphoinositide (PI) Turnover Assay; assay type: cell-based; details: for EC50: [3H]inositol phosphates production in A7r5 rat vascular smooth muscle cells
T1 construct: A7r5 rat vascular smooth muscle cells; endogenous in cells; host or cells: A7r5 rat vascular smooth muscle cells
Protocol: 5-HT2 Functional Assay: Phosphoinositide (PI) Turnover Assay
The relative agonist activity of serotonergic compounds at the 5-HT2 receptor can be determined in vitro using the ability of the compounds to stimulate the production of [^3H]inositol phosphates in [^3H]myo-inositol-labeled A7r5 rat vascular smooth muscle cells by their ability to activate the enzyme phospholipase C. These cells are grown in culture plates, maintained in a humidified atmosphere of 5% CO2 and 95% air and fed semi-weekly with Dulbecco's modified Eagle medium (DMEM) containing 4.5 g/l glucose and supplemented with 2 mM glutamine, 10 μg/ml gentamicin, and 10% fetal bovine serum. For the purpose of conducting the phosphoinositide (PI) turnover experiments, the A7r5 cells are cultured in 24-well plates as previously [J. Pharmacol. Expt. Ther., 286, 411 (1998)]. Confluent cells are exposed for 24–30 hrs to 1.5 μCi [^3H]-myo-inositol (18.3 Ci/mmol) in 0.5 ml of serum-free medium. Cells are then rinsed once with DMEM/F-12 containing 10 mM LiCl prior to incubation with the test agent (or solvent as the control) in 1.0 ml of the same medium for 1 hr at 37° C., after which the medium is aspirated and 1 ml of cold 0.1 M formic acid added to stop the reaction. The chromatographic separation of [3H]-inositol phosphates ([^3H]-IPs) on an AG-1-X8 column is performed as previously described [J. Pharmacol. Expt. Ther. 286, 411 (1998)] with sequential washes with H2O and 50 mM ammonium formate, followed by elution of the total [^3H]-IPs fraction with 1.2 M ammonium formate containing 0.1 M formic acid. The eluate (4 ml) is collected, mixed with 15 ml scintillation fluid, and the total [^3H]-IPs determined by scintillation counting on a beta-counter. Concentration-response data are analyzed by the sigmoidal fit function of the Origin Scientific Graphics software (Microcal Software, Northampton, Mass.) to determine agonist potency (EC50 value) and efficacy (Emax). Serotonin (5-HT) is used as a positive control (standard) agonist compound and the efficacy of test compounds is compared to that of 5-HT (set at 100%). The concentration of the compound needed to stimulate the production of [^3H]-IPs by 50% of the maximum response is termed the EC50 value.

[1] = A7r5 cells, efficacy compared to that of 5-HT (set at 100%)

T1 sequence (P14842 whole entry): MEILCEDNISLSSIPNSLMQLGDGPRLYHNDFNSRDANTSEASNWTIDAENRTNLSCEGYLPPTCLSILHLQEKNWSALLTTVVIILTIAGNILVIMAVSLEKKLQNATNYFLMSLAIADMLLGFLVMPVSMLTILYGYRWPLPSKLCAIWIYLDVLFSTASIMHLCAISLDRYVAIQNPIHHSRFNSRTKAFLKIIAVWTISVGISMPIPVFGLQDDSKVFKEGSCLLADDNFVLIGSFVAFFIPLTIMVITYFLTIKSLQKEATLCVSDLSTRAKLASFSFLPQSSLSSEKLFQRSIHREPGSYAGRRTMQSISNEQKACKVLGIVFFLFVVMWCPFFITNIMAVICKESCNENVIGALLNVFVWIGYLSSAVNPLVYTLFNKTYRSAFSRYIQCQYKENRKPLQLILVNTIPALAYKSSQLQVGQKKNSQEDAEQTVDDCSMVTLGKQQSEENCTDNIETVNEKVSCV

Compound | melting point [°C] | Emax (5-HT2 receptor; [1]) [%] | EC50 (5-HT2 receptor) [µM] | Efficacy (Emax, %) (5-HT2 receptor; [1]) [%]
CC(N)Cn1ncc2ccc(OC(=O)C(C)(C)C)cc21.O=C(O)/C=C/C(=O)O (centres unmarked) | 180 to 182 | – | – | –
COc1ccc2c(C)nn(CC(C)N)c2c1.O=C(O)/C=C/C(=O)O (centres unmarked) [Example 1, 2-(6-Methoxy-3-methyl-indazol-1-yl)-1-methylethylamine Fumarate] | 150 to 152 | 71 | 0.578 | –
Cc1nn(CC(C)N)c2cc(O)ccc12.O=C(O)/C=C/C(=O)O (centres unmarked) [Example 2, 1-(2-Aminopropyl)-3-methyl-1H-indazol-6-ol Fumarate] | 166 to 168 | 87 | 0.483 | –
COc1ccc2cnn(CC(C)N)c2c1 (centres unmarked) [Example 4, 2-(6-Methoxy-indazol-1-yl)-1-methyl-ethylamine] | – | 73 | 0.243 | –
COc1ccc2c(Cl)nn(CC(C)N)c2c1 (centres unmarked) [Example 5, 2-(3-Chloro-6-methoxy-indazol-1-yl)-1-methyl-ethylamine] | – | 64 | 0.541 | –
CC(N)Cn1nc(Cl)c2ccc(O)cc21 (centres unmarked) [Example 6, 1-(2-Aminopropyl)-3-chloro-1H-indazol-6-ol] | – | 84 | 1.05 | –
CC(N)Cc1c[nH]c2ccc(O)cc12 (stereo not drawn) [α-Methylserotonin, reference compound] | – | – | – | 104
